# Measurements published in PMC3095510 (Biomacromolecules, 2011).
# Ends that are not written are not given here.
# System: anthrax lethal toxin (PA and LF), RAW264.7 cells
sequence,measurement,value
HTSTYWWLDGAP,concentration up to which cytotoxicity was not inhibited,> 2000 µM
